# Columns and labels:
# [1] = test system: PKAc-F64L-S65T-GFP fusion; test: PKAc-F64L-S65T-GFP redistribution in stably transfected CHO cells (fluorescence microscopy, image analysis); format: cell-based, murine
# Experimental: The catalytic subunit of the murine cAMP dependent protein kinase (PKAc) was fused C-terminally to a F64L-S65T derivative of GFP. The resulting fusion (PKAc-F64L-S65T-GFP) was used for monitoring in vivo the translocation and thereby the activation of PKA.
# Untransfected CHO cells were used as the control. […] Expression of GR was maintained with 500 mg G418/ml (Neo marker) and PKAc-F64L-S65T-GFP was maintained with 500 mg Zeocin/ml (Sh ble marker). CHO cells were also simultaneously co-transfected with vectors containing the PKAc-F64L-S65T-GFP fusion and the human a2a adrenoceptor (hARa2a).
# For fluorescence microscopy, cells were allowed to adhere to Lab-Tek chambered cover-glasses (Nalge Nunc Int., Naperville, Ill., USA) for at least 24 hours and cultured to about 80% confluence. Prior to experiments, the cells were cultured over night without selection pressure in HAM F-12 medium with glutamax (Life Technologies), 100 mg penicillin-streptomycin mixture ml^−1 and 0.3% FBS. This medium has low autofluorescence enabling fluorescence microscopy of cells straight from the incubator.
# The cells were illuminated with a 100 W HBO arc lamp.
# Method 1: Stepwise Procedure for Quantitation of Translocation of PKA:
# 3. The image histogram, i.e., the frequency of occurrence of each intensity value in the image, was calculated.
# 4. A smoothed, second derivative of the histogram was calculated and the second zero is determined. […]
# 5. The value determined in step 4 was subtracted from the image. […]
# 6. The variance (square of the standard deviation) of the remaining pixel values was determined. […]
# Method 2: Alternative Method for Quantitation of PKA Redistribution:
# 1. […] The area of each image occupied by the aggregates is calculated by counting pixels in the segmented areas. […] A value of zero (0) indicates no redistribution of fluorescence from the starting condition. […]
# As described above, the time it took for a response to come to completion was dependent on the forskolin dose (FIG. 5) In addition the degree of responses was also dose dependent. […] The amount of cAMP produced was measured in an SPA assay. […]
# [2] = test system: cAMP; test: Scintillation proximity assay (SPA) of cAMP produced in CHO cells; format: cell-based, Chinese hamster; details: 8 concentrations 0.01-50 mM (n=4), 100 mM IBMX, 10 min
# Experimental: 7. Scintillation proximity assay (SPA) for independent quantitation of cAMP:
# Cells were cultured in HAM F-12 medium as described above, but in 96-well plates. The medium was exchanged with Ca^2+-HEPES buffer including 100 mM IBMX and the cells were stimulated with different concentrations of forskolin for 10 min. Reactions were stopped with addition of NaOH to 0.14 M and the amount of cAMP produced was measured with the cAMP-SPA kit, RPA538 (Amersham) as described by the manufacturer.
# As described above, the time it took for a response to come to completion was dependent on the forskolin dose (FIG. 5) In addition the degree of responses was also dose dependent. To test the PKA-F64L-S65T-GFP fusion protein translocation in a semi high through-put system, CHO cells stably transfected with the PKA-F64L-S65T-GFP fusion was stimulated with buffer and 5 increasing doses of forskolin (n=8). […] In parallel, cells were stimulated with buffer and 8 increasing concentrations of forskolin (n=4) in the range 0.01-50 mM. The amount of cAMP produced was measured in an SPA assay. A steep increase was observed between 1 and 5 mM forskolin coincident with the steepest part of the curve for fusion protein translocation (also FIG. 6)
# [3] = test system: EGFP-Erk1 fusion; test: EGFP-Erk1 nuclear translocation in HEK293 cells; format: cell-based, human
# Source text: b) The human Erk1 gene (GenBank Accession number: X60188) was amplified using PCR according to standard protocols with primers Erk1-top (SEQ ID NO:9) and Erk1-bottom/+stop (SEQ ID NO:10). The PCR product was digested with restriction enzymes EcoR1 and BamH1, and ligated into pEGFP-C1 (Clontech, Palo Alto; GenBank Accession number U55763) digested with EcoR1 and BamH1. This produces an EGFP-Erk1 fusion (SEQ ID NO:38 &39) under the control of a CMV promoter.
# The plasmid containing the EGFP-Erk1 fusion was transfected into HEK293 cells employing the FUGENE transfection reagent (Boehringer Mannheim). Prior to experiments the cells were grown to 80%-90% confluency 8 well chambers in DMEM with 10% FCS. […] Just before starting the experiment, the HAM F-12 was replaced with Hepes buffer following a wash with Hepes buffer. This removes the PD98059 inhibitor; if blocking of MEK1 is still wanted (e.g. in control experiments), the inhibitor is included in the Hepes buffer.
# The experimental setup of the microscope was as described in example 1.
# 60 images were collected with 10 seconds between each, and with the test compound added after image number 10.
# Redistribution of GFP fluorescence is expressed in this example as the change in the ratio value between areas in nuclear versus cytoplasmic compartments of the cell. Each time profile is the average of nuclear to cytoplasmic ratios from six cells in each treatment.
# [4] = test system: actin-binding-domain-EGFP fusion; test: Actin-binding-domain-EGFP redistribution in CHO cells expressing the human insulin receptor; format: cell-based; details: insulin stimulation
# Source text: The actin binding domain of the human alpha-actinin gene (GenBank Accession number: X15804) was amplified using PCR according to standard protocols with primers ABD-top (SEQ ID NO:90) and ABD-bottom/−stop (SEQ ID NO:91). The PCR product was digested with restriction enzymes Hind3 and BamH1, and ligated into pEGFP-N 1 (Clontech, Palo Alto; GenBank Accession number U55762) digested with Hind3 and BamH1. This produced an actin-binding-domain-EGFP fusion (SEQ ID NO:128 &129) under the control of a CMV promoter.
# The resulting plasmid was transfected into CHO cells expressing the human insulin receptor.
# [5] = target: T1, PKA-F64L-S65T-GFP probe / human a2a adrenoceptor (hARa2a) (Homo sapiens, UniProt P08913); test: PKAc-F64L-S65T-GFP redistribution in transiently transfected CHO cells expressing hARa2a; format: cell-based, murine; details: 10 mM norepinephrine after 10 mM forskolin for 7.5 minutes, forskolin still present
# T1 construct: expressed in transfected cells; host or cells: CHO, transient co-transfection
# T1 sequence (P08913 1-465): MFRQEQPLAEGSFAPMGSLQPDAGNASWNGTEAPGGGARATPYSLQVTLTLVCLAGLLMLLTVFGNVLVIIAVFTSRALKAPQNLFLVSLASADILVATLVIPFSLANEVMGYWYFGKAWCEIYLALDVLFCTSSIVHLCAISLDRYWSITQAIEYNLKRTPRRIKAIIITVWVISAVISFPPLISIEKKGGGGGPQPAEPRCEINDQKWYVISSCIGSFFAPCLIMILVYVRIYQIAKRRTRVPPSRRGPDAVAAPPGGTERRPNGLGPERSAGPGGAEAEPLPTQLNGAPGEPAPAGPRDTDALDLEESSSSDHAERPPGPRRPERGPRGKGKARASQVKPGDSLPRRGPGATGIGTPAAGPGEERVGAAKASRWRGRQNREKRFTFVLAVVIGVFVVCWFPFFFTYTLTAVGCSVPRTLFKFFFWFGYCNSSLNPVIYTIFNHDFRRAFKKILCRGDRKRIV
# Experimental: Transiently transfected CHO cells expressing hARa2a and the PKA-F64L-S65T-GFP probe were treated with 10 mM forskolin for 7.5 minutes, then, in the continued presence of forskolin, exposed to 10 mM norepinephrine to stimulate the exogenous adrenoreceptors, which couple to a Gi protein, which inhibit adenylate cyclase.
compound,measurement,setting,value
CC(C)Cn1c(=O)n(C)c(=O)c2[nH]cnc21 [IBMX],temporal profile of fusion protein redistribution compared with forskolin,"[1]; 1 mM dbcAMP, 100 mM IBMX, no adenylate cyclase stimulation",slow response
same,return of fusion protein to prestimulatory localization after removal of forskolin,"[1]; 10 mM forskolin and 100 mM IBMX, then washed 5-8 times with buffer containing 100 mM IBMX",did not return to its prestimulatory localization
"C=C[C@@]1(C)CC(=O)[C@]2(O)[C@@]3(C)[C@@H](O)CCC(C)(C)[C@@H]3[C@H](O)[C@H](OC(C)=O)[C@@]2(C)O1 [forskolin, Forskolin]",forskolin concentration range of steep increase in amount of cAMP produced,[2],1 to 5 mM
"EGF: growth factor added to activate the MAPK pathway and Erk1 nuclear translocation (NSDSECPLSHDGYCLHDGVCMYIEALDKYACNCVVGYIGERCQYRDLKWWELR; UniProt P01133 971-1023, looked up)",redistribution of EGFP-Erk1,"[3]; EGF 1-100 nM, within minutes",redistribution of EGFP-Erk1 from the cytoplasm into the nucleus
same,relationship between concentration and nuclear translocation of EGFP-Erk1,"[3]; change in nuclear to cytoplasmic ratio, six cells per treatment",dose-dependent relationship
CCCC(=O)Nc1ncnc2c1ncn2[C@@H]1O[C@@H]2COP(=O)(O)O[C@H]2[C@H]1OC(=O)CCC [dbcAMP],translocation of the fusion protein,"[1]; 1, 10 and 50 mM forskolin, dbcAMP at 1 mM",dramatic translocation of the fusion protein from a punctate distribution to an even distribution throughout the cytoplasm
insulin,redistribution of actin binding domain-EGFP probe,[4],redistributed into morphologically distinct membrane-associated structures
COc1cccc(-c2cc(=O)c3ccccc3o2)c1N [PD98059],effect on nuclear EGFP-Erk1,"[3]; 100 micromolar PD98059, 30-60 minutes in plain HAM F-12 without FCS",effectively empties the nucleus of EGFP-Erk1
NC[C@H](O)c1ccc(O)c(O)c1 [norepinephrine],"localisation of fluorescence, indicative of a decrease in [cAMP]i",[5],reappearance of fluorescence in the cytoplasmic aggregates

# Reference: US8058008B2, “Method for extracting quantitative information relating to an influence on a cellular response” (Fisher Bioimage APS, priority 1997, dated 2011)
